The source of these data is ChEMBL document CHEMBL1201862, “PubChem BioAssay data set” (2004).

Structures are written as SMILES.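 How tested: cells in 96-well plates exposed to compound for 48 hours at five concentrations. Here, GI50 denotes the concentration required for 50% inhibition of growth.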 Active and inactive are the calls of the source. Rule as the data show it: active = GI50 up to about 1.1 µM and inactive = higher. Some results are limits rather than exact numbers.

What all share (assay): growth of human tumour cells (NCI), 48 h
For assay [1], the system named is A498.
Assay [2] has as its system TK-10.
Assay [3] concerns M14.
Assay [4] has as its system HT-29.
The test system of assay [5] is DMS-273.
In assay [6] the test system is SNB-19.
The subject of assay [7] is SR.
For assay [8], the system named is M19-MEL.
Assay [9] relates to HOP-62.
In assay [10] the test system is XF498.
Assay [11] concerns LXFL 529.
Assay [12] has as its system SNB-78.
The test system of assay [13] is HOP-18.
The subject of assay [14] is MDA-MB-435.
Assay [15] has as its system Hs-578T.
In assay [16] the test system is SF-268.
In assay [17] the test system is T47D.
In assay [18] the test system is BT-549.
Assay [19] relates to MDA-MB-231.
The subject of assay [20] is DMS-114.

Regarding `N=S(=O)(c1ccccc1)c1ccccc1[N+](=O)[O-]` (centres undefined), the GI50 in assay [1], in assay [2], in assay [3], in [4], in assay [5] and in assay [6] was > 100 µM (inactive) each time. The GI50 in assay [7], in assay [8], in assay [9], in [10], in [11] and in [12] was > 100 µM (inactive) in each case. Besides, the GI50 in assay [13] is > 100 µM (inactive).
In the case of `CN1CN(c2ccccc2)C2(CCNCC2)C1=O`, the GI50 in assay [1], in assay [2], in assay [3], in assay [14], in [4] and in assay [6] was > 100 µM (inactive) throughout. Also, the GI50 in assay [7], in assay [15], in assay [9], in assay [16], in assay [17] and in [18] was > 100 µM (inactive) throughout. Besides, the GI50 in [19] is > 100 µM (inactive).
Turning to `N#Cc1ccc(C2Oc3ccc(Cl)cc3C=C2[N+](=O)[O-])cc1` (centres undefined), the GI50 in assay [1] was 2.38 µM (inactive); in assay [2], 1.85 µM (inactive); in [3] it was 1.36 µM (inactive); in assay [14], 1.73 µM (inactive); in assay [4] it was 2.4 µM (inactive); in [6], 2.67 µM (inactive). The GI50 in assay [7] was 0.157 µM (active); in assay [15], 6.32 µM (inactive); in assay [9], 1.98 µM (inactive); in assay [16] it was 1.91 µM (inactive); in assay [17] it was 0.34 µM (active); in assay [18] it was 0.581 µM (active). In assay [19], the GI50 was 1.8 µM (inactive).
Consider `N#C[C@H](OC1OC(COC2OC(CO)C(O)C(O)C2O)C(O)C(O)C1O)c1ccccc1` (some centres undefined), for which the GI50 is > 11.6 µM (inactive) in assay [1]; > 250 µM (inactive) in [4]; > 250 µM (inactive) in [5]; > 250 µM (inactive) in assay [20]; > 250 µM (inactive) in [6]; > 250 µM (inactive) in assay [8]. For the same compound, the GI50 in assay [9] is > 250 µM (inactive); in assay [16] it was > 250 µM (inactive); in [10] it was 23.4 µM (inactive); in [12] it was 228 µM (inactive); in assay [13], > 250 µM (inactive).
As to `C1CSCCSCSCCS1`, the GI50 in assay [1], in assay [2], in [3], in [14], in assay [4] and in [6] was > 100 µM (inactive) throughout. Also, the GI50 in assay [15], in [9], in assay [16], in [17], in assay [18] and in assay [19] was > 100 µM (inactive) throughout.
Take `COc1ccc(-c2nc3ccc([N+](=O)[O-])cc3c(=O)[nH]2)cc1`: the GI50 was 29.3 µM (inactive) in [1]; > 100 µM (inactive) in [4]; 48.4 µM (inactive) in assay [5]; 33 µM (inactive) in assay [20]; 20.4 µM (inactive) in [6]; > 100 µM (inactive) in assay [8]. Further, the GI50 is > 45.6 µM (inactive) in assay [9]; 20.4 µM (inactive) in [16]; 22.7 µM (inactive) in [10]; 19.9 µM (inactive) in assay [12]; > 62.4 µM (inactive) in assay [13].
As to `O=c1cccccc1NCCCCCCCCNc1cccccc1=O`, the GI50 is > 100 µM (inactive) in assay [3]; > 100 µM (inactive) in [4]; 55.7 µM (inactive) in assay [5]; 1.77 µM (inactive) in assay [20]; 38.1 µM (inactive) in [6]; 17.8 µM (inactive) in assay [7]. For the same compound, the GI50 in assay [8] is > 100 µM (inactive); in [9], > 100 µM (inactive); in [16], > 100 µM (inactive); in assay [10], 23 µM (inactive); in assay [11], 47.9 µM (inactive); in assay [12], > 100 µM (inactive).
On to `CC1CC[P+](c2ccccc2)(c2ccccc2)c2c1ccc1ccccc21` (centres undefined), for which the GI50 in [3] was 3.53 µM (inactive); in assay [14] it was 1.52 µM (inactive); in assay [4], 2.28 µM (inactive); in [5], 0.405 µM (active); in assay [6], 2.44 µM (inactive); in [15] it was 1.46 µM (inactive). The GI50 is 1.69 µM (inactive) in assay [8]; 4.35 µM (inactive) in assay [16]; 0.83 µM (active) in assay [11]; 0.883 µM (active) in assay [17]; 0.764 µM (active) in assay [18]; 2.67 µM (inactive) in [12]. In addition, the GI50 in [13] is 2.52 µM (inactive).
For the compound `CCCCNC(=O)N/C=C1\C(=O)Oc2ccccc2C1=O`, the GI50 is 79.4 µM (inactive) in assay [2]; 41.7 µM (inactive) in [3]; > 100 µM (inactive) in [4]; 76.6 µM (inactive) in assay [5]; 28.3 µM (inactive) in assay [20]; 26.5 µM (inactive) in assay [6]. For the same compound, the GI50 in [7] was 57.5 µM (inactive); in assay [8], 54.5 µM (inactive); in [9], 47.5 µM (inactive); in assay [16], 34.4 µM (inactive); in assay [10], 14.1 µM (inactive); in [11], 47.8 µM (inactive). For the same compound, the GI50 in assay [12] was 19.9 µM (inactive).
As for `Cn1c(=O)c(-c2ccccc2)c(N=[N+]=[N-])c2ccccc21`, the GI50 in assay [1] was 42.6 µM (inactive); in assay [2], > 100 µM (inactive); in [3], 63.2 µM (inactive); in assay [14] it was 45.4 µM (inactive); in [4] it was 23.5 µM (inactive); in assay [6], > 100 µM (inactive). Besides, the GI50 in assay [7] is 25.3 µM (inactive); in assay [15], 37.7 µM (inactive); in assay [9], 45 µM (inactive); in [16] it was 39.5 µM (inactive); in assay [17], 19.8 µM (inactive); in assay [18], 44.2 µM (inactive). Also, the GI50 in [19] is 49.5 µM (inactive).
As to `SC1=Nc2ccccc2-c2nc(-c3ccccc3)cc(-c3ccc(Br)cc3)c2C1`, the GI50 is 1.01 µM (active) in assay [1]; 2.4 µM (inactive) in assay [3]; 6.73 µM (inactive) in [14]; 2.07 µM (inactive) in [4]; 1.21 µM (inactive) in [6]; 0.891 µM (active) in assay [15]. The GI50 in assay [9] is 1.31 µM (inactive); in assay [16] it was 2.1 µM (inactive); in assay [17] it was 1.48 µM (inactive); in assay [18], 5.53 µM (inactive); in assay [19] it was 1.44 µM (inactive).
Regarding `CCOC(=O)N1C=NC23C(c4ccccc4)C(c4ccccc4)C12C(=O)N(C)C(=O)N3C` (centres undefined), the GI50 in assay [1], in assay [2], in [3], in assay [4], in [5] and in assay [6] was > 100 µM (inactive) throughout. Moreover, the GI50 in assay [7], in assay [8], in assay [9], in assay [16], in assay [10] and in assay [11] was > 100 µM (inactive) in each case. Also, the GI50 in [13] is 1.52 µM (inactive).
Consider `O=C1CCC23CC(C=CC=C12)n1c(=O)n(-c2ccccc2)c(=O)n13` (centres undefined), for which the GI50 in assay [1] is > 100 µM (inactive); in assay [4], > 88.9 µM (inactive); in assay [5], 71.4 µM (inactive); in assay [20] it was 37.3 µM (inactive); in assay [6], > 100 µM (inactive); in assay [8], > 100 µM (inactive). Further, the GI50 in assay [9] was > 100 µM (inactive); in [16] it was > 73.6 µM (inactive); in assay [10], > 100 µM (inactive); in assay [12], > 59.2 µM (inactive); in [13], > 100 µM (inactive).
For the compound `C#Cc1cccc(N2C(=O)c3c(c(-c4ccccc4)c(-c4ccc(Cc5ccc(-c6c(-c7ccccc7)c7c(c(-c8ccccc8)c6-c6ccccc6)C(=O)N(c6cccc(C#C)c6)C7=O)cc5)cc4)c(-c4ccccc4)c3-c3ccccc3)C2=O)c1`, the GI50 in assay [2] is 17.9 µM (inactive); in assay [3], 16.9 µM (inactive); in assay [4] it was 51.4 µM (inactive); in assay [5] it was 52.2 µM (inactive); in assay [20], 20.5 µM (inactive); in [6], 40 µM (inactive). Besides, the GI50 in assay [8] was 23.1 µM (inactive); in assay [9], 25.8 µM (inactive); in assay [16], 15 µM (inactive); in [10], 22.8 µM (inactive); in assay [11], 14.9 µM (inactive); in assay [12], 47.4 µM (inactive).
For the compound `Cc1cc2c(cc1C)[n+]([O-])c(C#N)c(Cl)[n+]2[O-]`, the GI50 in assay [1] is 19.7 µM (inactive); in assay [2] it was 14.4 µM (inactive); in assay [14] it was 21 µM (inactive); in assay [4], 4.44 µM (inactive); in [6], 34.3 µM (inactive); in [7], 3.82 µM (inactive). Moreover, the GI50 is 15.9 µM (inactive) in [15]; 19.6 µM (inactive) in assay [9]; 18.1 µM (inactive) in assay [16]; 15.6 µM (inactive) in assay [18]; 19.1 µM (inactive) in [19].
Consider `CC(C)=CCC/C(C)=C/C=C/C(C)=C/C1C[C@@]2(C(O)O1)[C@H](CCCO)/C(=C(/C)C=O)CC[C@]2(C)O` (some centres undefined), for which the GI50 in assay [2] was 25.5 µM (inactive); in assay [3], 13.5 µM (inactive); in assay [4], 16.4 µM (inactive); in assay [5], 1.39 µM (inactive); in assay [20], 13.3 µM (inactive); in assay [6] it was 19.1 µM (inactive). Moreover, the GI50 in assay [7] is 14.6 µM (inactive); in assay [8], 16.2 µM (inactive); in assay [16], 15.2 µM (inactive); in assay [10], 18.3 µM (inactive); in assay [12], 20.5 µM (inactive); in [13], 19.1 µM (inactive).
